Test results published in patent US5571799A, “(2'-5') oligoadenylate analogues useful as inhibitors of host-v5.-graft response” (Basco, Ltd., priority 1994, dated 1996).
“Also recorded” adds a separate entry of the source.

How the values were obtained:
[1] = test system: T-suppressors; assay: T-suppressors in monkeys after kidney transplantation; assay type: in vivo, Macaque Rh. monkeys; settings: for T-suppress: 50 μg/kg IV, 2 days pre-op. 44
Protocol: FLOW CYTOFLUOROGRAFIC ANALYSIS OF LYMPHOCYTE SUBSETS
Blood samples (100 μl of whole blood) were placed into a 12×17 tube. To these cells 20 μl of purified monoclonal antibodies were added with specificity for human cytotoxic/suppressor cells anti-Leu-2a (CD8), human helper/inducer anti-Leu-3a (CD4) and FITC conjugated monoclonal antibodies with specificity for natural killer cells-anti-Leu11c (CD16) (Becton Dickinson, San Jose). After 30 minutes incubation on ice, the cells were washed once and 20 μl of goat-antimouse chain phycoerythrin (Sigma P1286) conjugate were added to the tube with anti-Leu-2a and anti-Leu-3a monoclonal antibodies.
After erythrocyte lysing with FACS lysing solution (Becton Dickinson, San Jose) the cells were analyzed on FACScan flow cytometer (Becton Dickinson, San Jose) with scatter gate set on lymphocyte fraction.
The experiments were performed on 4 year-old Macaque Rh. monkeys. Each cohort consisted of 3 animals. […] The results of the experiments were evaluated clinically: by the presence or absence of urination from the ureterocutaneostoma.
After intravenous anesthesia with Ketalar®, an extraperitoneal access to the left kidney was performed through layer by layer cuts to the left lumbar region. The kidney was excised from the surrounding tissues. A clamp was applied to the vessel limb; the artery, the vein and the ureter each were prepared for anastomosis separately. The kidney was excised and transferred for hypothermal conservation in Collins' solution.
The donor kidney was transplanted into the recipient. […] anastomosis was performed: the graft arteries and veins attached to the appropriate recipient kidney vessels through plastic tubes. The kidney having been resuscitated by in blood flow, acquired the normal color and turgor. Additional hemostasis in the wound was performed. Ureterocutaneostomy was performed, which was followed by applying layer-upon-layer sutures on the wound and its aseptic dressing.
The monkeys were narcotized by means of the intravenous anesthesia with Ketalar® and subjected to medial laparotomy from the xiphoid down to the pubic joint. Access to the left Kidney was made extraperitoneally. The kidney was teased from the surrounding tissues. A clamp was put on the vessel limb; the artery, the vein and the ureter were dressed separately; the kidney was cut and transferred for hypothermal conservation in Collins' solution.
The internal iliac artery and the external iliac vein were extracted extra-peritoneally, immobilized and prepared for anastomosis. The donor kidney was transferred to the recipient. Vessel anastomosis was performed: the graft arteries were anastomosed with the internal iliac artery according to the end-to-end method and the graft veins were anastomosed with the external iliac vein according to the end-to-side method. The kidney having been engaged in blood flow, acquired a normal color and turgor. Bleeding on the line of the arterial anastomosis was stopped by making additional sutures. Ureterocutaneostomy was performed. The abdominal cavity was lavaged with the solution of disodium carbenicillin. Layer-upon-layer sutures on the wound were applied. Aseptic dressing was performed.
During our experiments we have divided monkeys into two groups, three monkeys to each group. For the first group (2'-5')A2 Ar-epoxy was administered intravenously at concentration of 50 μg/kg two days before the operation and at the second, sixth, and twelfth day after the operation and then every sixth day. […] After transplantation kidney functions were restored within 10 hours.
The administration schedule of (2'-5')A2 Ar-epoxy was modified slightly for the second group of monkeys. The preparation was injected two days before the operation and every other day at a concentration of 50 μg/kg during the entire post-transplantation period. […] The number of T-helpers dropped correspondingly from 37% to 7%. […] During the entire postoperative period, this activity tendency continues.

[2] = test system: snake venom phosphodiesterase; assay: Stability to the action of snake venom phosphodiesterase; assay type: in vitro ADME
Protocol: Determination of (2'-5')oligoadenylates and analogues stability to the action of snake venom phosphodiesterase
Upon entering an organism 2'-5'A3 and the analogues are quickly hydrolyzed to monomeric compound(s). Prior to administration of 2'-5'A3 analogues in vivo to animal, it was considered necessary to determine their stability towards snake venom phosphodiesterase in comparison to the parent 2'-5'A3.
The solution of 3 μg of the snake venom phosphodiesterase (Boehringer Mannheim cat. No. 108260) in 30 μl of 0.1 M Tris HCl buffer, containing 0.002 M MgCl2 (pH 8.78) is added to the solution of 4-5·10^-7 M trimer in 100 μl of the same buffer. The solution was left standing at 20° C. At regular intervals, 10 μl samples were taken, heated at 90° C. for 1 minute and preparative thin layer chromatography was performed on the Silufole™ plates, using a 7:1:2 mixture of isopropanol:aqueous ammonia:water.
The spot, corresponding to the initial trimer, was cut out, the substance was extracted with 2 ml of 0.5% solution of the dodecylsulfate sodium salt solution for 2 hours, and the optical density of the solution was determined at 260 nm.

[3] = test system: T-lymphocytes (murine splenocytes) stimulated with Concanavalin A; assay: In vitro blast-transformation of murine lymphocytes, Con A (T-lymphocyte mitogen), [3H]-thymidine; assay type: cell-based, mouse (CBA); settings: for DNA synthesis at [^3 H]-thymidine [incorporated counts/min.]: Con A 5 μg/ml
Description: The immune reactions in an organism begins with the division of lymphocytes. In vitro investigation of the lymphocyte blast-transformationreaction under the influence of mitogens makes it possible to use this model system to select chemically synthesized 2'-5'A3 analogues which suppress division of lymphocytes. Using Concanavalin A and lipopolysaccharide as mitogens, the effect of analogues on the division of T- and β-lymphocytes may be investigated.
CBA mice 8-10 weeks old were used for these experiments. A suspension of mouse splenocytes were obtained by gently teasing spleens with forceps. […] Cultures were maintained in 5% CO2 at 37° C. One μCi of ^3 H-thymidine (Isotop®) was added to each well 4 hours before the end of the incubation period. Incorporation of ^3 H-thymidine into cellular DNA was determined by liquid scintillation counting using standard techniques. Oligoadenylate was added to the medium at the beginning of culturing to achieve the final concentration.
(Con A being a mitogen for T-lymphocytes and LPS being a mitogen for β-lymphocytes).

## Adenylyl (2'-5')adenylyl (2'-5')-9-(2,3-anhydro-β-D-ribofuranosyl) adenine disodium salt [(2'-5')A2 Ar-epoxy]
[1]; day 1 post-op.
  T-suppress: 40.6%
[1]; day 5 post-op.
  T-suppress: 44%
[1]; day 8 post-op.
  T-suppress: 47%
[1]; day 13 post-op.
  T-suppress: 47.7%
[1]; day 18 post-op.
  T-suppress: 57.5%
[1]; post-transplantation, 50 μg/kg, disodium salt
  effect on T-suppressors in transplanted animals, in words: stimulates the number of T-suppressor cells in transplanted monkeys; also recorded: stimulates somewhat the number of T-suppressors
[1]; second group, 50 μg/kg every other day, 7 days after surgery, presurgical 44%
  quantity of T-suppressors: 49%
[2]; 20° C., 0.1 M Tris HCl, 0.002 M MgCl2, pH 8.78
  T 1/2 (time for optical density of initial trimer to decrease by 50%): 16.0 h
[2]; in words, disodium salt
  stability / resistance to phosphodiesterase: significantly more resistant towards hydrolysis by phosphodiesterase; also recorded: more resistant to phosphodiesterase than (2'-5')A2 A^l-epoxy
[2]; vs 2'-5'A3
  resistance to snake venom phosphodiesterase relative to prototype 2'-5'A3: 35 fold
[3]; 5 × 10^-6 M, control 22,296
  DNA synthesis at [^3 H]-thymidine [incorporated counts/min.]: 16,399 counts/min.
[3]; Con A, T-lymphocytes
  inhibition of lymphocyte blast-transformation, in words: suppresses the T-lymphocyte division to a greater extent
[3]; Table 4, 1 × 10^-5 M, control 5,428
  DNA synthesis at [^3 H]-thymidine [incorporated counts/min.]: 4,172 counts/min.
[3]; Table 4, 5 × 10^-6 M, control 5,428
  DNA synthesis at [^3 H]-thymidine [incorporated counts/min.]: 1,733 counts/min.
[3]; Table 4, 5 × 10^-7 M, control 5,428
  DNA synthesis at [^3 H]-thymidine [incorporated counts/min.]: 3,865 counts/min.
[3]; Table 4, 5 × 10^-8 M, control 5,428
  DNA synthesis at [^3 H]-thymidine [incorporated counts/min.]: 5,383 counts/min.
[3]; Table 4, 5 × 10^-9 M, control 5,428
  DNA synthesis at [^3 H]-thymidine [incorporated counts/min.]: 1,599 counts/min.
[3]; Table 4, 5 × 10^-10 M, control 5,428
  DNA synthesis at [^3 H]-thymidine [incorporated counts/min.]: 777 counts/min.
[3]; Table 4, 5 × 10^-11 M, control 5,428
  DNA synthesis at [^3 H]-thymidine [incorporated counts/min.]: 5,271 counts/min.
[3]; Table 5, 1 × 10^-5 M, control 5,108
  DNA synthesis at [^3 H]-thymidine [incorporated counts/min.]: 2,960 counts/min.
[3]; Table 5, 5 × 10^-6 M, control 5,108
  DNA synthesis at [^3 H]-thymidine [incorporated counts/min.]: 4,732 counts/min.
[3]; Table 5, 5 × 10^-7 M, control 5,108
  DNA synthesis at [^3 H]-thymidine [incorporated counts/min.]: 2,237 counts/min.
[3]; Table 5, 5 × 10^-8 M, control 5,108
  DNA synthesis at [^3 H]-thymidine [incorporated counts/min.]: 1,355 counts/min.
[3]; Table 5, 5 × 10^-9 M, control 5,108
  DNA synthesis at [^3 H]-thymidine [incorporated counts/min.]: 6,915 counts/min.
[3]; Table 5, 5 × 10^-10 M, control 5,108
  DNA synthesis at [^3 H]-thymidine [incorporated counts/min.]: 1,425 counts/min.
